{"source": "paper PMC7281072", "about": "(Cancers, 2020)", "key": {"ERK1,2 phosphorylation [1]": {"test_system": "ERK1,2 phosphorylation", "assay": "ERK1/2 phosphorylation ELISA, UWB1.289+BRCA1 cells", "format": "cell-based, human", "settings": "for Vmax ± SE, pERK 1/2 inhibition: Michaelis Menten model; for IC50: Homo sapiens, read-out: IC50, pERK 1/2 inhibition"}, "AKT1,2 phosphorylation [2]": {"test_system": "AKT1,2 phosphorylation", "assay": "AKT phosphorylation ELISA, UWB1.289+BRCA1 cells", "format": "cell-based, human", "design": "Vmax ± SE, pAKT 1/2 inhibition: unit not given beside the values", "settings": "for Vmax ± SE, pAKT 1/2 inhibition: Michaelis Menten model; for IC50: Homo sapiens, read-out: IC50, pAKT 1/2 inhibition"}, "ERK1,2 phosphorylation [3]": {"test_system": "ERK1,2 phosphorylation", "assay": "ERK1/2 phosphorylation ELISA, SK-OV-3 cells", "format": "cell-based, human", "settings": "for Vmax ± SE, pERK 1/2 inhibition: Michaelis Menten model; for IC50: Homo sapiens, read-out: IC50, pERK 1/2 inhibition"}, "[4]": {"test_system": "SKOV-3 human ovarian adenocarcinoma xenograft", "design": "species or system CB17 SCID mice", "settings": "mouse, in vivo"}, "AKT1,2 phosphorylation [5]": {"test_system": "AKT1,2 phosphorylation", "assay": "AKT phosphorylation ELISA, SK-OV-3 cells", "format": "cell-based, human", "settings": "for Vmax ± SE, pAKT 1/2 inhibition: Michaelis Menten model; for IC50: Homo sapiens, read-out: IC50, pAKT 1/2 inhibition"}, "[6]": {"test_system": "OVCAR-5 human ovarian adenocarcinoma xenograft", "design": "species or system CB17 SCID mice", "settings": "mouse, in vivo"}, "SK-OV-3 cancer cell line": {"test_system": "SK-OV-3 cancer cell line", "assay": "cells", "settings": "Homo sapiens, SK-OV-3, 48 h"}, "CB17 SCID mice": {"test_system": "CB17 SCID mice", "settings": "both, mouse, in vivo, ip"}, "[7]": {"test_system": "UWB1.289+BRCA1 cancer cell line"}, "ERK1,2 phosphorylation [8]": {"test_system": "ERK1,2 phosphorylation", "assay": "ERK1/2 phosphorylation ELISA, OVCAR-3 cells", "format": "cell-based, human", "settings": "for Vmax ± SE, pERK 1/2 inhibition: Michaelis Menten model; for IC50: Homo sapiens, read-out: IC50, pERK 1/2 inhibition"}, "OVCAR-3 cancer cell line": {"test_system": "OVCAR-3 cancer cell line", "assay": "cells", "settings": "Homo sapiens, OVCAR-3, 48 h"}, "pERK1,2": {"test_system": "pERK1,2", "assay": "Western immunoblotting densitometry, pERK1,2, SKOV-3 cells", "format": "cell-based, human", "settings": "SKOV-3 cells, 25 μM, 15min; control ratio 1.70"}, "[9]": {"settings": "read-out: GI50 (50% Growth Inhibition)"}, "[10]": {"settings": "read-out: IC50 (cytotoxic effect)"}}, "data": [{"smiles": "C[C@]12CC[C@H]3[C@@H](CCC4=CC(=O)NCC[C@@]43C)[C@@H]1CC[C@@H]2OC(=O)CCOc1ccc(N(CCCl)CCCl)cc1", "note": "[ENGA-L06E, 5a,7a-dimethyl-2-oxo-2,3,4,5,5a,5b,6,7,7a,8,9,10,10a,10b,11,12-hexa decahydrocyclopenta [5, 6] naphtho [1,2-d] azepin-8-yl 3-(4-(bis(2-chloroethyl)amino)phenoxy) propanoate]", "values": [{"measurement": "Vmax ± SE, pERK 1/2 inhibition", "setting": "ERK1,2 phosphorylation [1]; 15 min", "value": "59.43 ± 1.10"}, {"measurement": "Vmax ± SE, pERK 1/2 inhibition", "setting": "ERK1,2 phosphorylation [1]; 30 min", "value": "72.79 ± 1.14"}, {"measurement": "Vmax ± SE, pERK 1/2 inhibition", "setting": "ERK1,2 phosphorylation [1]; 60 min", "value": "74.35 ± 0.49"}, {"measurement": "IC50", "setting": "ERK1,2 phosphorylation [1]; 0.25 h, 15 min", "value": 28.7, "unit": "µM"}, {"measurement": "IC50", "setting": "ERK1,2 phosphorylation [1]; 0.5 h, 30 min", "value": 12.4, "unit": "µM"}, {"measurement": "IC50", "setting": "ERK1,2 phosphorylation [1]; 1 h, 60 min", "value": 9.29, "unit": "µM"}, {"measurement": "Vmax ± SE, pAKT 1/2 inhibition", "setting": "AKT1,2 phosphorylation [2]; 15 min", "value": "59.78 ± 4.67"}, {"measurement": "Vmax ± SE, pAKT 1/2 inhibition", "setting": "AKT1,2 phosphorylation [2]; 30 min", "value": "57.10 ± 3.38"}, {"measurement": "Vmax ± SE, pAKT 1/2 inhibition", "setting": "AKT1,2 phosphorylation [2]; 60 min", "value": "63.12 ± 4.19"}, {"measurement": "IC50", "setting": "AKT1,2 phosphorylation [2]; 0.25 h, 15 min", "value": 44.4, "unit": "µM"}, {"measurement": "IC50", "setting": "AKT1,2 phosphorylation [2]; 0.5 h, 30 min", "value": 40.3, "unit": "µM"}, {"measurement": "IC50", "setting": "AKT1,2 phosphorylation [2]; 1 h, 60 min", "value": 25.8, "unit": "µM"}, {"measurement": "Vmax ± SE, pERK 1/2 inhibition", "setting": "ERK1,2 phosphorylation [3]; 15 min", "value": "79.14 ± 2.62"}, {"measurement": "Vmax ± SE, pERK 1/2 inhibition", "setting": "ERK1,2 phosphorylation [3]; 30 min", "value": "82.95 ± 1.69"}, {"measurement": "Vmax ± SE, pERK 1/2 inhibition", "setting": "ERK1,2 phosphorylation [3]; 60 min", "value": "84.71 ± 1.60"}, {"measurement": "IC50", "setting": "ERK1,2 phosphorylation [3]; 0.25 h, 15 min", "value": 13, "unit": "µM"}, {"measurement": "IC50", "setting": "ERK1,2 phosphorylation [3]; 0.5 h, 30 min", "value": 11, "unit": "µM"}, {"measurement": "IC50", "setting": "ERK1,2 phosphorylation [3]; 1 h, 60 min", "value": 8.78, "unit": "µM"}, {"measurement": "Median Overall Survival (OS)", "setting": "[4]", "value": 112, "unit": "days"}, {"measurement": "Progression Free Survival (PFS)", "setting": "[4]", "value": 11, "unit": "days"}, {"measurement": "Response Rate (RR)", "setting": "[4]", "value": 100, "unit": "%"}, {"measurement": "Cures (mice alive for 120 days after tumor inoculation)", "setting": "[4]; ip", "value": "2/5"}, {"measurement": "MST (mean survival time)", "setting": "[4]; ip", "value": "79.6 ± 4.0", "unit": "p < 0.01 Days"}, {"measurement": "T/C% (mean survival time of treated versus saline controls)", "setting": "[4]; ip", "value": 195.6, "unit": "%"}, {"measurement": "TI% (Tumor Inhibition)", "setting": "[4]; ip", "value": 67.6, "unit": "%"}, {"measurement": "size of the primary tumor", "setting": "[4]; ip", "value": "478 ± 18.3", "unit": "mm^3"}, {"measurement": "Vmax ± SE, pAKT 1/2 inhibition", "setting": "AKT1,2 phosphorylation [5]; 15 min", "value": "79.23 ± 0.39"}, {"measurement": "Vmax ± SE, pAKT 1/2 inhibition", "setting": "AKT1,2 phosphorylation [5]; 30 min", "value": "86.10 ± 1.13"}, {"measurement": "Vmax ± SE, pAKT 1/2 inhibition", "setting": "AKT1,2 phosphorylation [5]; 60 min", "value": "87.27 ± 0.59"}, {"measurement": "IC50", "setting": "AKT1,2 phosphorylation [5]; 0.25 h, 15 min", "value": 25.9, "unit": "µM"}, {"measurement": "IC50", "setting": "AKT1,2 phosphorylation [5]; 0.5 h, 30 min", "value": 22.3, "unit": "µM"}, {"measurement": "IC50", "setting": "AKT1,2 phosphorylation [5]; 1 h, 60 min", "value": 21.4, "unit": "µM"}, {"measurement": "Median Overall Survival (OS)", "setting": "[6]", "value": 98, "unit": "days"}, {"measurement": "Progression Free Survival (PFS)", "setting": "[6]", "value": 27, "unit": "days"}, {"measurement": "Response Rate (RR)", "setting": "[6]", "value": 100, "unit": "%"}, {"measurement": "Cures (mice alive for 120 days after tumor inoculation)", "setting": "[6]; ip", "value": "0/5"}, {"measurement": "MST (mean survival time)", "setting": "[6]; ip", "value": "93.2 ± 2.4", "unit": "p < 0.01 Days"}, {"measurement": "T/C% (mean survival time of treated versus saline controls)", "setting": "[6]; ip", "value": 184.8, "unit": "%"}, {"measurement": "TI% (Tumor Inhibition)", "setting": "[6]; ip", "value": 117.0, "unit": "%"}, {"measurement": "size of the primary tumor", "setting": "[6]; ip", "value": "220 ± 19.1", "unit": "mm^3"}, {"measurement": "GI50", "setting": "SK-OV-3 cancer cell line; [9]", "value": "18 ± 0.9", "unit": "µM"}, {"measurement": "IC50", "setting": "SK-OV-3 cancer cell line; [10]", "value": "76 ± 7.5", "unit": "µM"}, {"measurement": "LD10", "setting": "CB17 SCID mice", "value": 120, "unit": "mg/kg"}, {"measurement": "TGI (Total Growth Inhibition)", "setting": "[7]", "value": "28 ± 1.9", "unit": "μΜ"}, {"measurement": "Vmax ± SE, pERK 1/2 inhibition", "setting": "ERK1,2 phosphorylation [8]; 15 min", "value": "53.57 ± 3.41"}, {"measurement": "Vmax ± SE, pERK 1/2 inhibition", "setting": "ERK1,2 phosphorylation [8]; 30 min", "value": "80.62 ± 1.98"}, {"measurement": "Vmax ± SE, pERK 1/2 inhibition", "setting": "ERK1,2 phosphorylation [8]; 60 min", "value": "93.91 ± 3.61"}, {"measurement": "IC50", "setting": "ERK1,2 phosphorylation [8]; 0.25 h, 15 min", "value": 49, "unit": "µM"}, {"measurement": "IC50", "setting": "ERK1,2 phosphorylation [8]; 0.5 h, 30 min", "value": 14.5, "unit": "µM"}, {"measurement": "IC50", "setting": "ERK1,2 phosphorylation [8]; 1 h, 60 min", "value": 12.8, "unit": "µM"}, {"measurement": "GI50", "setting": "OVCAR-3 cancer cell line; [9]", "value": "22 ± 0.9", "unit": "µM"}, {"measurement": "IC50", "setting": "OVCAR-3 cancer cell line; [10]", "value": "43 ± 2.9", "unit": "µM"}, {"measurement": "ratio [pERK1+pERK2]/[GAPDH] band intensity", "setting": "pERK1,2", "value": 1.91}]}]}
